Test results as given in patent publication US12624034B2, “Non-covalent modifiers of AKT1 and uses thereof” (Terremoto Biosciences, Inc., priority 2023, dated 2026).
pIC50: −log10 of the molar value. Like-named read-outs stand apart in the source and are kept apart here.

How the values were obtained:
[1] = biological target: T1, AKT1 WT (Homo sapiens, UniProt P31749); assay: Live cell AKT1 WT target engagement by NanoBRET competitive probe displacement in HEK293 cells; type: binding; settings: 2 h at 37° C., read-out: AKT1 WT IC50
T1 construct: expressed in transfected cells; host or cells: HEK293

[2] = biological target: T2, AKT2 (Homo sapiens, UniProt P31751); assay: Live cell AKT2 target engagement by NanoBRET competitive probe displacement in HEK293 cells; type: binding; settings: 2 h at 37° C., read-out: AKT2 IC50
T2 construct: expressed in transfected cells; host or cells: HEK293

[3] = NanoBRET live cell target engagement, HEK293 cells
[4] = NanoBRET competitive probe displacement, live HEK293 cells

T1 sequence (P31749 whole entry): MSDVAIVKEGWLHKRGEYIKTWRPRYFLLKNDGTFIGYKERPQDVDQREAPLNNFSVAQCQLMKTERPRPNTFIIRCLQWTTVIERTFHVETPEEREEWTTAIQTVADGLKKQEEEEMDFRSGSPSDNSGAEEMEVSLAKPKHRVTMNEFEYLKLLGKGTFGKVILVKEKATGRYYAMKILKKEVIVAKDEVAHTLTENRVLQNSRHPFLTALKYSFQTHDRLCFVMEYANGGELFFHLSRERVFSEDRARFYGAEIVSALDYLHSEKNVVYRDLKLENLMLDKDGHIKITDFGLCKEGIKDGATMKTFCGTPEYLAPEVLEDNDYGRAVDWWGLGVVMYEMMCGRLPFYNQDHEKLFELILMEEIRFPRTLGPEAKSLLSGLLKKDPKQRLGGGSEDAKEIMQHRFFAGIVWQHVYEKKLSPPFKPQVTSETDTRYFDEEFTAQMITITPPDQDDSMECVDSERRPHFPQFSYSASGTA
T2 sequence (P31751 whole entry): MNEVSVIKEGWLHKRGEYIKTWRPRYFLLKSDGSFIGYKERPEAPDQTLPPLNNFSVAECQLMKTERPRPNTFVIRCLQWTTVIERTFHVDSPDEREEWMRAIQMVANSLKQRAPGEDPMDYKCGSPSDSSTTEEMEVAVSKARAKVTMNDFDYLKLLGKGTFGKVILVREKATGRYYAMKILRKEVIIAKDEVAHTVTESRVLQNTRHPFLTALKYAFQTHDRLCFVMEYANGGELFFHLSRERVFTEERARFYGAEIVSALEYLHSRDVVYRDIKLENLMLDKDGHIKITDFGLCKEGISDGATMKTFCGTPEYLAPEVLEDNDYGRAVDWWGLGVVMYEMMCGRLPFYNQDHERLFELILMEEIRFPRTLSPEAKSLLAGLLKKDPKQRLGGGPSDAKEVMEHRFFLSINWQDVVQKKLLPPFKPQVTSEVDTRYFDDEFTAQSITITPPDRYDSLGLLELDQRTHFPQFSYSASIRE

## Cc1cnc(-c2ccc3nc(-c4cccnc4N)n(-c4ccc5c(c4)CC[C@@H]5NC(=O)c4nccnc4C)c3n2)s1 [Compound 243, (S)—N-(5-(2-(2-aminopyridin-3-yl)-5-(5-methylthiazol-2-yl)-3H-imidazo[4,5-b]pyridin-3-yl)-2,3-dihydro-1H-inden-1-yl)-3-methylpyrazine-2-carboxamide]
[1]; [3]
  pIC50: 7.12
[2]; [3]
  pIC50: 5.08

## Cc1ccc(C(=O)N[C@H]2CCc3cc(-n4c(-c5cccnc5N)nc5ccc(C#CC6CC6)nc54)ccc32)cn1 [Compound 435]
[1]; [4]
  pIC50: 7.71
[2]; [4]
  pIC50: 5.86

## Nc1ncccc1-c1nc2ccc(-n3cccn3)nc2n1-c1ccc2c(c1)CC[C@@H]2NC1CCN(C(=O)C2CCC2)CC1 [Compound 422]
[1]; [4]
  pIC50: 7.17
[2]; [4]
  pIC50: 5.68

## Nc1ncccc1-c1nc2ccc(-n3cccn3)nc2n1-c1ccc2c(c1)CC[C@@H]2NC(=O)c1cnc2nccn2c1 [Compound 160]
[1]; [3]
  pIC50: 7.27
[2]; [3]
  pIC50: 6.25

## Cc1ncccc1OCC1CCc2cc(-n3c(-c4cccnc4N)nc4ccc(-n5cccn5)nc43)ccc21 (single isomer, unassigned) [Compound 252, (*)-3-(3-(1-(((2-methylpyridin-3-yl)oxy)methyl)-2,3-dihydro-1H-inden-5-yl)-5-(1H-pyrazol-1-yl)-3H-imidazo[4,5-b]pyridin-2-yl)pyridin-2-amine]
[1]; [3]
  pIC50: 6.22
[2]; [3]
  pIC50: 5.58

## Cc1nccnc1C(=O)N[C@H]1CCc2cc(-n3c(-c4cccnc4N)nc4ccc(-c5ccn(C(F)F)n5)nc43)ccc21 [Compound 301]
[1]; [3]
  pIC50: 6.72
[2]; [3]
  pIC50: 5.69

## Cn1c(=O)[nH]c2ccc(C(=O)N[C@H]3CCc4cc(-n5c(-c6cccnc6N)nc6ccc(-n7cccn7)nc65)ccc43)cc21 [Compound 230]
[1]; [3]
  pIC50: 7.87
[2]; [3]
  pIC50: 7.17

## Nc1ncccc1-c1nc2ccc(-c3ccn(C4CCOCC4)n3)nc2n1-c1ccc2c(c1)CC[C@@H]2NC1CCN(C(=O)C2CC2)CC1 [Compound 555]
[1]; [4]
  pIC50: 7.19
[2]; [4]
  pIC50: 5.80

## Nc1ncccc1-c1nc2ccc(-n3nccn3)nc2n1-c1ccc2c(c1)CC[C@@H]2NC(=O)c1cnc(C(F)F)c(F)c1 [Compound 121]
[1]; [3]
  pIC50: 7.44
[2]; [3]
  pIC50: 5.80

## Nc1ncccc1-c1nc2ccc(-n3cccn3)nc2n1-c1ccc2c(c1)CC[C@@H]2NC(=O)c1ccc2[nH]c(=O)sc2c1 [Compound 233]
[1]; [3]
  pIC50: 7.91
[2]; [3]
  pIC50: 7.62

## Nc1ncccc1-c1nc2ccc(-n3cccn3)nc2n1-c1ccc2c(c1)CC[C@@H]2N(C1CC1)C1CCN(C(=O)C2CC2)CC1 [Compound 557]
[1]; [4]
  pIC50: 7.80
[2]; [4]
  pIC50: 5.75

## COc1csc(-c2ccc3nc(-c4cccnc4N)n(-c4ccc5c(c4)CC(F)[C@@H]5NC4CCN(C(=O)C5CC5)CC4)c3n2)n1 (stereo partly drawn) [Compound 559]
[1]; [4]
  pIC50: 8.25
[2]; [4]
  pIC50: 6.57

## COc1ccn(-c2ccc3nc(-c4cccnc4N)n(-c4ccc5c(c4)CC[C@@H]5NC4CCN(C(=O)C5CC5)CC4F)c3n2)n1 (stereo partly drawn) [Compound 515]
[1]; [4]
  pIC50: 7.92
[2]; [4]
  pIC50: 6.34

## Cc1nc(C(F)F)sc1C(=O)N[C@H]1CCc2cc(-n3c(-c4cccnc4N)nc4ccc(-n5nccn5)nc43)ccc21 [Compound 541]
[1]; [4]
  pIC50: 8.26
[2]; [4]
  pIC50: 6.25

## Nc1ncccc1-c1nc2ccc(-n3cccn3)nc2n1-c1ccc2c(c1)CC[C@@H]2NC(=O)c1cc(F)c2[nH]ncc2c1 [Compound 261]
[1]; [3]
  pIC50: 8.32
[2]; [3]
  pIC50: 7.33

## Nc1ncccc1-c1nc2ccc(-n3cccn3)nc2n1-c1ccc2c(c1)CC[C@@H]2NC(=O)c1cc(C(F)F)ns1 [Compound 452]
[1]; [4]
  pIC50: 8.18
[2]; [4]
  pIC50: 6.88

## Nc1ncccc1-c1nc2ccc(-n3nccn3)nc2n1-c1ccc2c(c1)CC[C@@H]2NC(=O)c1cnns1 [Compound 436]
[1]; [4]
  pIC50: 7.40
[2]; [4]
  pIC50: 5.33

## Cc1nccnc1C(=O)N[C@H]1CCc2cc(-n3c(-c4cccnc4N)nc4ccc(-c5cnn(C)n5)nc43)ccc21 [Compound 271]
[1]; [3]
  pIC50: 6.55
[2]; [3]
  pIC50: < 5.00

## CC#Cc1ccc2nc(-c3cccnc3N)n(-c3ccc4c(c3)CC[C@@H]4NC(=O)c3ccc(C(F)F)nc3)c2n1 [Compound 405]
[1]; [4]
  pIC50: 7.34
[2]; [4]
  pIC50: 5.80

## Cc1nnc(C)n1[C@H]1CCc2cc(-n3c(-c4cccnc4N)nc4ccc(-n5cccn5)nc43)ccc21 [Compound 272, (S)-3-(3-(1-(3,5-dimethyl-4H-1,2,4-triazol-4-yl)-2,3-dihydro-1H-inden-5-yl)-5-(1H-pyrazol-1-yl)-3H-imidazo[4,5-b]pyridin-2-yl)pyridin-2-amine]
[1]; [3]
  pIC50: 7.41
[2]; [3]
  pIC50: 6.22

## CN(C)Cc1ncccc1C(=O)N[C@H]1CCc2cc(-n3c(-c4cccnc4N)nc4ccc(-n5cccn5)nc43)ccc21 [Compound 104]
[1]; [3]
  pIC50: 6.50
[2]; [3]
  pIC50: < 5.00

## Cc1ccc(CN[C@H]2CCc3cc(-n4c(-c5cccnc5N)nc5ccc(-n6cccn6)nc54)ccc32)cn1 [Compound 70]
[1]; [3]
  pIC50: 7.31
[2]; [3]
  pIC50: 6.24

## Nc1ncccc1-c1nc2ccc(-n3cccn3)nc2n1-c1ccc2c(c1)CC[C@@H]2NC(=O)c1cccnc1-n1cccn1 [Compound 90]
[1]; [3]
  pIC50: 6.64
[2]; [3]
  pIC50: 5.23

## Cc1ccc(C(C)N[C@H]2CCc3cc(-n4c(-c5cccnc5N)nc5ccc(-n6cccn6)nc54)ccc32)cn1 (stereo partly drawn) [Compound 154]
[1]; [3]
  pIC50: 6.29
[2]; [3]
  pIC50: 5.50
